Data set [1] in a line: Volume of distribution at steady state in Sprague-Dawley rat at 0.05 mg/kg, iv. The following applies: in vivo, read-out: Vdss. It counts as ADME, organism-based. Details: dose 0.05 mg/kg, route intravenous.
Data set [2] is described as follows: Lipophilicity, log D of the compound. The class given is physicochemical. To be noted: octanol/water.
Data set [3] in a line: Plasma clearance in Sprague-Dawley rat at 0.05 mg/kg, iv. It counts as ADME, organism-based. Details: dose 0.05 mg/kg, route intravenous.
The nature of data set [4]: Drug uptake in APP-YAC transgenic mouse brain at 100 mg/kg, po after 6 hrs. Also on record: dose 100 mg/kg, route oral. To be noted: read-out: Drug uptake. The class given is ADME, organism-based.
The target of data set [5] is Gamma-secretase. The data set can be described thus: Inhibition of gamma-secretase in human SH-SY5Y cells co-expressing APP C-terminal fragment SPA4CT assessed as inhibition of amyloid beta 42 production by electrochemiluminescent assay. The class given is cell-based.
The target in data set [6] is Gamma-secretase. The data set can be described thus: Inhibition of gamma-secretase in human SH-SY5Y cells co-expressing APP C-terminal fragment SPA4CT assessed as inhibition of amyloid beta 40 production by electrochemiluminescent assay. The class given is cell-based.
Data set [7] can be described thus: (§1) AUC in Sprague-Dawley rat at 0.05 mg/kg, iv. The class given is ADME, organism-based, Plasma. Also on record: dose 0.05 mg/kg, route intravenous. To be noted: Sprague-Dawley, plasma.
Data set [8] is described as follows: Half life in Sprague-Dawley rat at 0.05 mg/kg, iv. To be noted: in vivo. Details: dose 0.05 mg/kg, route intravenous. The class given is ADME, organism-based.
A short description of data set [9]: Ratio of permeability from apical to basolateral side over basolateral to apical side in […] expressing human MDR1. The class given is ADME, cell-based.
The subject of data set [10] is Mus musculus. The data set can be described thus: Anti-Alzheimer's disease activity in APP-YAC transgenic mouse model assessed as reduction in amyloid beta 42 production at 100 mg/kg, po. It counts as functional.
Data set [11] in a line: Drug uptake in APP-YAC transgenic mouse plasma at 100 mg/kg, po after 6 hrs. The class given is ADME, organism-based. Also on record: dose 100 mg/kg, route oral.
Data set [12] can be described thus: Solubility of the compound. It counts as physicochemical.
A short description of data set [13]: Apparent permeability of the compound. The class given is ADME. The following applies: not told.
In data set [14] the test system is Rattus norvegicus. The description is as §1. It counts as ADME, organism-based, Plasma. Details: dose 0.05 mg/kg, route intravenous. To be noted: in vivo.

Results on 26 molecules are retold here after ChEMBL document CHEMBL2016479, “Lead optimization of 4,4-biaryl piperidine amides as γ-secretase inhibitors” (Bioorg Med Chem Lett, 2012).

For orientation: logD means lipophilicity at a set pH, counting ionised and neutral species. For orientation: clearance means the volume of plasma or blood freed of the substance per unit of time. Read a high clearance as a high capacity for elimination. By pIC50 is commonly meant the negative decadic logarithm of the IC50, by convention in mol/L. By AUC is commonly meant concentration integrated over time. A higher AUC goes with high exposure. What is called half-life is the time needed for the level to fall by half in the phase considered. Low readings indicate rapid decline, high ones slow decline. What is called inhibition in vivo is the relative decrease from the control value, in per cent. As usually defined, the solubility is the concentration that dissolves in the medium under given conditions. For orientation: Papp means a coefficient for how fast a substance crosses the barrier.

SMILES strings stand for the structures. pIC50: −log10 of the molar value. Converted amounts (≈) assume the structure as drawn. Some results are limits rather than exact numbers.

On to `Cn1cc(C(=O)N2CCC(c3cc(F)ccc3F)(S(=O)(=O)c3ccc(Cl)cc3)CC2)c(C(F)(F)F)n1`, for which the Vd in data set [1] turned out to be 11.3 L. In addition, the logD in data set [2] was 3.36. In data set [3], this molecule returned a clearance greater than 84 mL/min/kg. The concentration at 6 h in data set [4] came out at 520 nM; in data set [11], 1780 nM. Further, the pIC50 is 6.92 in data set [5] and 6.80 in [6]. Besides, the AUC in data set [7] was determined as 0.23 µM·h. Besides, the half-life in data set [8] was 2.05 h. For the same molecule, the Ratio in data set [9] was determined as 1.8. For the same molecule, in [10], the inhibition in vivo at 100 mg/kg came out at 17%. Further, the solubility in data set [12] is 30.6 µM (≈ 16.8 µg/mL). The Papp in [13] was 30.7 ×10⁻⁶ cm/s.
On to `Cn1nc(C(F)(F)F)c(C(=O)N2CCC(c3cc(F)ccc3F)(S(=O)(=O)c3ccc(Cl)cc3)CC2)c1Cl`, for which the clearance in [3] amounted to 79 mL/min/kg. Further, the pIC50 was 6.72 in data set [5] and 6.64 in data set [6].
The like results for `COc1ccc2c(C(=O)N3CCC(c4cc(F)ccc4F)(S(=O)(=O)c4ccc(Cl)cc4)CC3)c[nH]c2c1` were, in that order, greater than 84 mL/min/kg, 7.10 and 6.57.
Molecule `COc1ccc2c(C(=O)N3CCC(c4cc(F)ccc4F)(S(=O)(=O)c4ccc(Cl)cc4)CC3)cn(C)c2c1` returned a clearance in data set [3] greater than 84 mL/min/kg. Also, the pIC50 in data set [5] was 7.15; in data set [6], 7.05.
In [3], `Cn1ccnc1C(=O)N1CCC(c2cc(F)ccc2F)(S(=O)(=O)c2ccc(Cl)cc2)CC1` gave a clearance greater than 84 mL/min/kg. The figures for the pIC50 in [5] and in data set [6] were 6.80 and 6.70, respectively.
As for `O=C(c1ncccc1C(F)(F)F)N1CCC(c2cc(F)ccc2F)(S(=O)(=O)c2ccc(Cl)cc2)CC1`, the clearance in [3] was 80.5 mL/min/kg. Besides, the figures for the pIC50 in data set [5] and in data set [6] were 7.30 and 7.15, respectively.
Molecule `O=C(c1cnccc1C(F)(F)F)N1CCC(c2cc(F)ccc2F)(S(=O)(=O)c2ccc(Cl)cc2)CC1` came in with a clearance in data set [3] greater than 84 mL/min/kg. Further, the pIC50 is 6.96 in data set [5] and 6.89 in data set [6].
For the molecule `O=C(c1cnc(Cl)cc1C(F)(F)F)N1CCC(c2cc(F)ccc2F)(S(=O)(=O)c2ccc(Cl)cc2)CC1`, the figures for the negative logarithm of the IC50 (pIC50) in data set [5] and in [6] were 6.01 and 5.96, respectively.
The like results for `O=C(c1cnc(Cl)nc1C(F)(F)F)N1CCC(c2cc(F)ccc2F)(S(=O)(=O)c2ccc(Cl)cc2)CC1` were, in that order, less than 5.00 and less than 5.00.
`O=C(c1ccccc1C(F)(F)F)N1CCC(c2cc(F)ccc2F)(S(=O)(=O)c2ccc(Cl)cc2)CC1` returned a clearance in [3] of 31.9 mL/min/kg. The figures for the pIC50 in [5] and in [6] were 6.68 and 6.59, respectively.
For the molecule `O=C(CCC(F)(F)F)N1CCC(c2cc(F)ccc2F)(S(=O)(=O)c2ccc(Cl)cc2)CC1`, the figures for the pIC50 in data set [5] and in data set [6] were 6.38 and 6.40, respectively.
Molecule `O=C(CC(F)(F)F)N1CCC(c2cc(F)ccc2F)(S(=O)(=O)c2ccc(Cl)cc2)CC1` registered a clearance in data set [3] greater than 84 mL/min/kg. Moreover, the pIC50 in data set [5] is 7.05; in data set [6] it was 7.10.
As to `O=C(N1CCC(c2cc(F)ccc2F)(S(=O)(=O)c2ccc(Cl)cc2)CC1)C1(C(F)(F)F)CCCCC1`, the pIC50 in data set [5] was 6.74; in data set [6], 6.66.
`O=C(N1CCC(c2cc(F)ccc2F)(S(=O)(=O)c2ccc(Cl)cc2)CC1)C1(C(F)(F)F)CCCC1`: the clearance in data set [3] is greater than 84 mL/min/kg. Further, the pIC50 in data set [5] was 6.96; in data set [6], 6.85.
The like results for `O=C(N1CCC(c2cc(F)ccc2F)(S(=O)(=O)c2ccc(Cl)cc2)CC1)C1(C(F)(F)F)CCC1` were, in that order, 46.2 mL/min/kg, 7.22 and 7.15.
Take `O=C(N1CCC(c2cc(F)ccc2F)(S(=O)(=O)c2ccc(Cl)cc2)CC1)C1(C(F)(F)F)CC1`: the Vd in data set [1] came out at 3.1 L. Further, the logD in data set [2] amounted to 3.76. For the same molecule, the concentration at 6 h in data set [4] is 1180 nM; in data set [11] it was 650 nM. The pIC50 in data set [5] and in [6] was 7.52 in each case. Also, the AUC in [14] came out at 1.19 µM·h. Moreover, in [8], the half-life was 3.5 h. Further, the Ratio in data set [9] worked out at 0.9. Moreover, in data set [10], the inhibition in vivo at 100 mg/kg stood at 37%. For the same molecule, in [12], the concentration in solution (solubility) was 26.8 µM (≈ 13.6 µg/mL). The Papp in [13] is 37.3 ×10⁻⁶ cm/s.
The molecule `COC(=O)C1(C(=O)N2CCC(c3cc(F)ccc3F)(S(=O)(=O)c3ccc(Cl)cc3)CC2)CC1` came in with a clearance in [3] greater than 84 mL/min/kg. The pIC50 in [5] is 7.30; in data set [6], 7.00.
The like results for `CC1(C(=O)N2CCC(c3cc(F)ccc3F)(S(=O)(=O)c3ccc(Cl)cc3)CC2)CC1` were, in that order, greater than 84 mL/min/kg, 7.30 and 7.15.
The like results for `CC(C)(O)C(=O)N1CCC(c2cc(F)ccc2F)(S(=O)(=O)c2ccc(Cl)cc2)CC1` were, in that order, 75.1 mL/min/kg, 6.92 and 6.89.
Turning to `CC1(C(=O)N2CCC(c3cc(F)ccc3F)(S(=O)(=O)c3ccc(Cl)cc3)CC2)COC1`, the pIC50 in data set [5] was 6.19; in [6], 6.06.
The like results for `O=C(N1CC[C@](c2cc(F)ccc2F)(S(=O)(=O)c2ccc(Cl)cc2)[C@@H](O)C1)C1(C(F)(F)F)CC1` (racemic) were, in that order, 6.72 and 6.60.
`O=C(N1CC[C@](c2cc(F)ccc2F)(S(=O)(=O)c2ccc(Cl)cc2)[C@H](O)C1)C1(C(F)(F)F)CC1` (racemic): in data set [1], the Vd came out at 1.65 L. For the same molecule, the logD in [2] stood at 3.27. In addition, the concentration at 6 h in data set [4] is 7060 nM; in [11], 11100 nM. Moreover, the pIC50 in [5] and in data set [6] was 7.40 each time. This molecule came in with an AUC in data set [7] of 3.51 µM·h. Also, the half-life in data set [8] is 1.6 h. For the same molecule, the Ratio in data set [9] stood at 1.2. In addition, the inhibition in vivo at 100 mg/kg in data set [10] was determined as 76%. The molecule also had a solubility in data set [12] of 174 µM (≈ 91.1 µg/mL). Besides, in data set [13], the apparent permeability (Papp) came to 31.1 ×10⁻⁶ cm/s.
Take `O=C(N1CC[C@](c2cc(F)ccc2F)(S(=O)(=O)c2ccc(Cl)cc2)[C@@H](O)C1)C1(C(F)(F)F)CC1` (single isomer, unassigned; 11b): the pIC50 in data set [5] and in [6] was 7.05 in each case.
`O=C(N1CC[C@](c2cc(F)ccc2F)(S(=O)(=O)c2ccc(Cl)cc2)[C@@H](O)C1)C1(C(F)(F)F)CC1` (single isomer, unassigned; 11c): the pIC50 in [5] was 5.62; in data set [6], 5.75.
`O=C(N1CC[C@](c2cc(F)ccc2F)(S(=O)(=O)c2ccc(Cl)cc2)[C@H](O)C1)C1(C(F)(F)F)CC1` (single isomer, unassigned; 12b): the pIC50 in data set [5] was 7.10; in data set [6] it was 6.96.
In data set [3], `O=C(N1CC[C@](c2cc(F)ccc2F)(S(=O)(=O)c2ccc(Cl)cc2)[C@H](O)C1)C1(C(F)(F)F)CC1` (single isomer, unassigned; 12c) registered a clearance of 5.7 mL/min/kg. In addition, the pIC50 in data set [5] and in [6] was 8.00 in each case.
